Measurements published in PMC11823630, “In vitro potentiation of tetracyclines in Pseudomonas aeruginosa by RW01, a new cyclic peptide” (Antimicrobial Agents and Chemotherapy, 2024).
≈ marks a conversion by molar mass, not a printed value. Where a SMILES comes first, the peptide text is derived from it.

Key:
C57BL/6J females [1] = assay: In vivo acute toxicity; parameters: species or system mice; details: single ip dose of 0.2 mL at 250 or 500 mg/L; n = 6 per group; observed 7 days
Description: (§1) To study the acute toxicity of RW01, two groups of n = 6 C57BL/6J females (≈20 g) were treated intraperitoneally (ip) with a single dose of 0.2 mL of 250 and 500 mg/L concentrations of RW01, respectively. After administration and for 7 days, the following indicative signs of pain were assessed: reduced water (dehydration), food intake, isolation, self-mutilation, tremors/spasms, dyspnea, physical activity (increased/reduced), chromodacryorrhea, muscle stiffness, piloerection, teeth grinding, and weight loss. For cumulative toxicity determination, a group of n = 6, 7-week-old healthy C57BL/6J females was treated ip, with a 0.2 mL single dose per day for 3 days at a concentration equivalent to 500 mg/L. After administration and for 7 days, the same indicative signs of pain/toxicity detailed in the acute toxicity studies were evaluated.

C57BL/6J females [2] = assay: In vivo cumulative toxicity; parameters: species or system mice; details: ip 0.2 mL once a day for 3 days at 500 mg/L; n = 6; observed 7 days
Description: as §1

[3] = system: PAO1 mutant MIN8_4, pilZ(nt18InsT); assay: MIC, E-test on MHA; format: cell-based; details: Pseudomonas aeruginosa, PAO1, read-out: MIC, E-test
[4] = system: PAO1 mutant MIN1_RW01_1, pmrB(Y98N); assay: MIC, E-test on MHA; format: cell-based; details: Pseudomonas aeruginosa, PAO1, read-out: MIC, E-test
[5] = system: PAO1 mutant MIN1_RW01_4, pmrB(F124L); assay: MIC, E-test on MHA; format: cell-based; details: Pseudomonas aeruginosa, PAO1, read-out: MIC, E-test
[6] = system: PAO1 mutant MIN8_3, pilZ(nt18InsT); assay: MIC, E-test on MHA; format: cell-based; details: Pseudomonas aeruginosa, PAO1, read-out: MIC, E-test
[7] = system: PAO1 mutant MIN4_RW01_2, pmrB(F124S); assay: MIC, E-test on MHA; format: cell-based; details: Pseudomonas aeruginosa, PAO1, read-out: MIC, E-test
[8] = system: PAO1 mutant MIN16_3, nfxB(nt79∆14), pilB(N349K); assay: MIC, E-test on MHA; format: cell-based; details: Pseudomonas aeruginosa, PAO1, read-out: MIC, E-test
[9] = system: PAO1 mutant MIN16_2, nalC(aa9∆4), pilQ(nt46∆1); assay: MIC, E-test on MHA; format: cell-based; details: Pseudomonas aeruginosa, PAO1, read-out: MIC, E-test
[10] = system: PAO1 mutant MIN4_RW01_4, pmrB(Y98N); assay: MIC, E-test on MHA; format: cell-based; details: Pseudomonas aeruginosa, PAO1, read-out: MIC, E-test
[11] = system: PAO1 mutant MIN32_1, mexR(R63H), pilB(N349K), PA0646(V316G); assay: MIC, E-test on MHA; format: cell-based; details: Pseudomonas aeruginosa, PAO1, read-out: MIC, E-test
[12] = system: PAO1 mutant MIN4_RW01_1, pmrB(R429H); assay: MIC, E-test on MHA; format: cell-based; details: Pseudomonas aeruginosa, PAO1, read-out: MIC, E-test
[13] = system: PAO1 mutant MIN2_RW01_2, pmrB(M292T); assay: MIC, E-test on MHA; format: cell-based; details: Pseudomonas aeruginosa, PAO1, read-out: MIC, E-test
[14] = system: PAO1 mutant MIN1_RW01_3, pmrB(V215L); assay: MIC, E-test on MHA; format: cell-based; details: Pseudomonas aeruginosa, PAO1, read-out: MIC, E-test
[15] = system: PAO1 mutant MIN16_1, nalD(T43P); assay: MIC, E-test on MHA; format: cell-based; details: Pseudomonas aeruginosa, PAO1, read-out: MIC, E-test
P. aeruginosa PAO1 = assay: MIC, CLSI broth microdilution in BD Phoenix AST Broth; format: cell-based, Pseudomonas aeruginosa; details: strain PAO1; antibiotic with RW01 at 100 mg/L
Description: (§2) MIC for RW01 was also tested.
(§3) FIC of RW01 (FICRW01)=MIC of RW01 in combination/MIC of RW01 alone,FIC of antibiotic (FICATB)=MIC of ATB in combination/MIC of ATB alone,FICI=FICRW01 +FICATB.
(§4) FICI was interpreted as follows: synergistic effect if FICI is ≤0.5; additive effect if 0.5 < FICI ≤ 1.0; indifferent effect if 1.0 < FICI ≤ 2.0; and finally, antagonistic effect if FICI is >2.0. The average FICI considering the antibiotic MIC (no growth in any of the replicates) at different concentrations of RW01 was calculated ([28]).

P. aeruginosa PAOUW = assay: as above; format: cell-based, Pseudomonas aeruginosa; details: strain PAOUW; antibiotic with RW01 at 100 mg/L
Description: as §2, §3, §4

P. aeruginosa 41B = assay: as above; format: cell-based, Pseudomonas aeruginosa; details: strain 41B
Description: as §2, §3, §4

P. aeruginosa PAOΔmexZ = assay: as above; format: cell-based, Pseudomonas aeruginosa; details: strain PAOΔmexZ
Description: as §2, §3, §4

P. aeruginosa PAOUW∆oprF = assay: as above; format: cell-based, Pseudomonas aeruginosa
Description: as §2, §3, §4

P. aeruginosa PAOΔmexR = assay: as above; format: cell-based, Pseudomonas aeruginosa
Description: as §2, §3, §4

P. aeruginosa PAOΔoprM = assay: as above; format: cell-based, Pseudomonas aeruginosa
Description: as §2, §3, §4

P. aeruginosa 125B = assay: as above; format: cell-based, Pseudomonas aeruginosa; details: strain 125B; antibiotic with RW01 at 100 mg/L
Description: as §2, §3, §4

P. aeruginosa 125A = assay: as above; format: cell-based, Pseudomonas aeruginosa; details: strain 125A; antibiotic with RW01 at 100 mg/L
Description: as §2, §3, §4

P. aeruginosa 41A = assay: as above; format: cell-based, Pseudomonas aeruginosa; details: strain 41A
Description: as §2, §3, §4

[16] = system: PAO1 mutant MIN8_1, nalD(R3C), pilM(Q62X); assay: MIC, E-test on MHA; format: cell-based; details: Pseudomonas aeruginosa, PAO1, read-out: MIC, E-test
[17] = system: PAO1 mutant MIN16_4, nalC(T50P), pilM(Q62X); assay: MIC, E-test on MHA; format: cell-based; details: Pseudomonas aeruginosa, PAO1, read-out: MIC, E-test
[18] = system: PAO1 mutant MIN1_RW01_2, mexR(G58E), pilB(G326D), hutC(Y181X); assay: MIC, E-test on MHA; format: cell-based; details: Pseudomonas aeruginosa, PAO1, read-out: MIC, E-test
[19] = system: PAO1 mutant MIN2_RW01_3, parS(V152A); assay: MIC, E-test on MHA; format: cell-based; details: Pseudomonas aeruginosa, PAO1, read-out: MIC, E-test
[20] = system: PAO1 mutant MIN2_RW01_4, pmrB(M292T); assay: MIC, E-test on MHA; format: cell-based; details: Pseudomonas aeruginosa, PAO1, read-out: MIC, E-test
[21] = system: PAO1 mutant MIN4_RW01_3, pmrB(M292T); assay: MIC, E-test on MHA; format: cell-based; details: Pseudomonas aeruginosa, PAO1, read-out: MIC, E-test
[22] = system: PAO1 mutant MIN2_RW01_1, pmrB(V215L); assay: MIC, E-test on MHA; format: cell-based; details: Pseudomonas aeruginosa, PAO1, read-out: MIC, E-test
[23] = system: PAO1 mutant MIN8_2, pilZ(nt18InsT); assay: MIC, E-test on MHA; format: cell-based; details: Pseudomonas aeruginosa, PAO1, read-out: MIC, E-test
PAO1 one-step mutants = assay: MIC, Sensititre custom plate, mutants summarised as a group; format: cell-based, Pseudomonas aeruginosa; details: mutants generated by minocycline alone
Description: Selection of resistant mutants was performed for minocycline with and without RW01 in three independent replicates for wild-type P. aeruginosa reference strain PAO1. Tubes containing Mueller-Hinton broth (MHB) were inoculated and incubated for 24 h at 37°C. Afterward, 1/100 dilution of each tube was incubated at 37°C in MHB to late-exponential growth phase, measured by spectrophotometry at OD600. […] A control plate without antibiotic was included as inoculum control. After overnight incubation, colony counting of each treatment was performed to analyze the generation of resistant population. The mutant prevention concentration (MPC) was defined as the lowest concentration of antibiotic yielding no growth of resistant mutants. Selected mutants were checked for susceptibility profiles by using a Sensititre custom plate (Thermo Fisher Scientific, Massachusetts, USA) for Gram-negative bacteria, following the manufacturer’s instructions.

[24] = Pseudomonas aeruginosa, agent alone, 37°C, 18–22 h, three biological replicates
[25] = antibiotic with RW01 at 100 mg/L
[26] = strain PAOUWΔoprF (printed PAOΔoprF), antibiotic with RW01 at 100 mg/L
[27] = strain PAOΔmexR, antibiotic with RW01 at 100 mg/L
[28] = strain PAOΔoprM, antibiotic with RW01 at 100 mg/L

N=C(N)NCCC[C@@H]1NC(=O)[C@H]2C[C@H](N)CN2C(=O)[C@H](Cc2c[nH]c3ccccc23)NC(=O)[C@H](CCCNC(=N)N)NC(=O)[C@H]2CCCN2C(=O)[C@H](Cc2c[nH]c3ccccc23)NC1=O [RW01] (HELM PEPTIDE1{R.W.[dP].R.W.[N[C@H]1C[C@H](C(=O)[*:2])N([*:1])C1]}$PEPTIDE1,PEPTIDE1,1:R1-6:R2$$$V2.0)
signs of pain/toxicity, acute toxicity (C57BL/6J females [1]): None of the doses tested of RW01 showed any of the 11 symptoms indicative of pain/toxicity | signs of pain/toxicity, cumulative toxicity (C57BL/6J females [2]): None of the doses tested of RW01 showed any of the 11 symptoms indicative of pain/toxicity

CN(C)[C@@H]1C(O)=C(C(N)=O)C(=O)[C@@]2(O)C(O)=C3C(=O)c4c(O)cccc4[C@@](C)(O)[C@H]3C[C@@H]12 [Tetracycline, tetracycline]
MIC [3]: 64 µg/mL (≈ 144 µM) | MIC [4]: 192 µg/mL (≈ 432 µM) | MIC [5]: 64 µg/mL (≈ 144 µM) | MIC [6]: 64 µg/mL (≈ 144 µM) | MIC [7]: 64 µg/mL (≈ 144 µM) | MIC [8]: 128 µg/mL (≈ 288 µM) | MIC [9]: 96 µg/mL (≈ 216 µM) | MIC [10]: 96 µg/mL (≈ 216 µM) | MIC [11]: 256 µg/mL (≈ 576 µM) | MIC [12]: 256 µg/mL (≈ 576 µM) | MIC [13]: 192 µg/mL (≈ 432 µM) | MIC [14]: 256 µg/mL (≈ 576 µM) | MIC [15]: 256 µg/mL (≈ 576 µM) | FICI (P. aeruginosa PAO1): 0.445 | FICI-determined effect (P. aeruginosa PAO1): Synergy (synergistic effect if FICI is ≤0.5) | FICI-determined effect (P. aeruginosa PAOUW): Synergy (synergistic effect if FICI is ≤0.5) | MIC (P. aeruginosa 41B; [24]): 16 µg/mL | FICI-determined effect (P. aeruginosa 41B; [25]): Additivity (additive effect if 0.5 < FICI ≤ 1.0) | MIC (P. aeruginosa PAOΔmexZ; [24]): 16 µg/mL | FICI (P. aeruginosa PAOΔmexZ; [25]): 0.223 | FICI-determined effect (P. aeruginosa PAOΔmexZ; [25]): Synergy (synergistic effect if FICI is ≤0.5) | FICI (P. aeruginosa PAOUW∆oprF; [26]): 0.223 | FICI-determined effect (P. aeruginosa PAOUW∆oprF; [26]): Synergy (synergistic effect if FICI is ≤0.5) | MIC (P. aeruginosa PAOUW∆oprF; strain PAOUWΔoprF, agent alone, 37°C, 18–22 h, three biological replicates): 16 mg/L | MIC (P. aeruginosa PAOΔmexR; Pseudomonas aeruginosa): 16 µg/mL | Antibiotic MIC + RW01 100 mg/L (P. aeruginosa PAOΔmexR; strain PAOΔmexR, MIC of the antibiotic with fixed 100 mg/L RW01): 4 mg/L | FICI (P. aeruginosa PAOΔmexR; [27]): 0.348 | FICI-determined effect (P. aeruginosa PAOΔmexR; [27]): Synergy (synergistic effect if FICI is ≤0.5) | MIC (P. aeruginosa PAOΔoprM; Pseudomonas aeruginosa): 1 µg/mL | Antibiotic MIC + RW01 100 mg/L (P. aeruginosa PAOΔoprM; strain PAOΔoprM, MIC of the antibiotic with fixed 100 mg/L RW01): 0.5 mg/L | FICI (P. aeruginosa PAOΔoprM; [28]): 0.598 | FICI-determined effect (P. aeruginosa PAOΔoprM; [28]): Additivity (additive effect if 0.5 < FICI ≤ 1.0) | FICI (P. aeruginosa 125B): 0.445 | FICI-determined effect (P. aeruginosa 125B): Synergy (synergistic effect if FICI is ≤0.5) | FICI-determined effect (P. aeruginosa 125A): Synergy (synergistic effect if FICI is ≤0.5) | MIC (P. aeruginosa 41A; [24]): 16 µg/mL | FICI-determined effect (P. aeruginosa 41A; [25]): Additivity (additive effect if 0.5 < FICI ≤ 1.0) | MIC [16]: 256 µg/mL (≈ 576 µM) | MIC [17]: 64 µg/mL (≈ 144 µM) | MIC [18]: 256 µg/mL (≈ 576 µM) | MIC [19]: 256 µg/mL (≈ 576 µM) | MIC [20]: 96 µg/mL (≈ 216 µM) | MIC [21]: 256 µg/mL (≈ 576 µM) | MIC [22]: 128 µg/mL (≈ 288 µM) | MIC [23]: 256 µg/mL (≈ 576 µM)

colistin
colistin MIC vs wild type (PAO1 one-step mutants): remained unchanged
